# Data as given in ChEMBL document CHEMBL3885881, “DrugMatrix”.
# Species: Rattus norvegicus
# Test: DrugMatrix - Regimen: Daily Repeat
# Assay type: toxicity, organism-based, Sprague-Dawley
# Design: regimen Daily Repeat, gender Male, age 6-8 weeks
# Settings: in vivo, po, route oral GAVAGE, vehicle .5 % CMC; for ABSOLUTE BASOPHIL / ABSOLUTE EOSINOPHIL / ABSOLUTE LYMPHOCYTE / ABSOLUTE MONOCYTE / ABSOLUTE SEGMENTED NEUTROPHIL / BASOPHIL / EOSINOPHIL / ERYTHROCYTE COUNT / HEMATOCRIT / HEMOGLOBIN / LEUKOCYTE COUNT / LYMPHOCYTE / MEAN CORPUSCULAR HEMOGLOBIN / MEAN CORPUSCULAR HEMOGLOBIN CONCENTRATION / MEAN CORPUSCULAR VOLUME / MONOCYTE / NEUTROPHIL / NUCLEATED RED BLOOD CELLS / PLATELET COUNT: tissue Blood; for ALANINE AMINOTRANSFERASE / ALBUMIN / ALKALINE PHOSPHATASE / ASPARTATE AMINOTRANSFERASE / BLOOD UREA NITROGEN / CARBON DIOXIDE / CHLORIDE / CHOLESTEROL / CREATINE PHOSPHOKINASE / CREATININE / GLUCOSE / LACTATE DEHYDROGENASE / LIPASE / PHOSPHORUS / POTASSIUM / SODIUM / TOTAL BILIRUBIN / TOTAL PROTEIN / URIC ACID: tissue Plasma
# [1] = 60 mg/kg, 72 h, dose level Low, time 3 day
# [2] = 60 mg/kg, 120 h, dose level Low, time 5 day
# [3] = 435 mg/kg, 72 h, dose level High, time 3 day
# [4] = 435 mg/kg, 120 h, dose level High, time 5 day
smiles,measurement,setting,value
CCCCCCCCNC(C)C(O)c1ccc(SC(C)C)cc1 (configuration not stated) [SULOCTIDIL],ABSOLUTE BASOPHIL,[1],0 CELLS/uL
same,ABSOLUTE EOSINOPHIL,[1],0 CELLS/uL
same,ABSOLUTE LYMPHOCYTE,[1],12874.67 CELLS/uL
same,ABSOLUTE MONOCYTE,[1],326.33 CELLS/uL
same,ABSOLUTE SEGMENTED NEUTROPHIL,[1],2365.67 CELLS/uL
same,BASOPHIL,[1],0%
same,EOSINOPHIL,[1],0%
same,ERYTHROCYTE COUNT,[1],5.66 x10E6/uL
same,HEMATOCRIT,[1],34.83%
same,HEMOGLOBIN,[1],13.2 G/DL
same,LEUKOCYTE COUNT,[1],15.57 x10E3/uL
same,LYMPHOCYTE,[1],81.33%
same,MEAN CORPUSCULAR HEMOGLOBIN,[1],23.33 pg
same,MEAN CORPUSCULAR HEMOGLOBIN CONCENTRATION,[1],37.93 G/DL
same,MEAN CORPUSCULAR VOLUME,[1],61.57 fL
same,MONOCYTE,[1],2.33%
same,NEUTROPHIL,[1],16.33%
same,NUCLEATED RED BLOOD CELLS,[1],0 /100WBC
same,PLATELET COUNT,[1],1204 x10E3/uL
same,ALANINE AMINOTRANSFERASE,[1],56.67 u/L
same,ALBUMIN,[1],4.23 G/DL
same,ALKALINE PHOSPHATASE,[1],425.33 u/L
same,ASPARTATE AMINOTRANSFERASE,[1],91.67 u/L
same,BLOOD UREA NITROGEN,[1],18 mg/dL
same,CARBON DIOXIDE,[1],25 mmol/L
same,CHLORIDE,[1],101.33 MEQ/L
same,CHOLESTEROL,[1],80 mg/dL
same,CREATINE PHOSPHOKINASE,[1],410.67 u/L
same,CREATININE,[1],0.23 mg/dL
same,GLUCOSE,[1],140.33 mg/dL
same,LACTATE DEHYDROGENASE,[1],416.33 u/L
same,LIPASE,[1],10.33 u/L
same,PHOSPHORUS,[1],14.3 mg/dL
same,POTASSIUM,[1],5.93 MEQ/L
same,SODIUM,[1],145.47 MEQ/L
same,TOTAL BILIRUBIN,[1],0.17 mg/dL
same,TOTAL PROTEIN,[1],6.27 G/DL
same,URIC ACID,[1],1.4 mg/dL
same,ABSOLUTE BASOPHIL,[2],0 CELLS/uL
same,ABSOLUTE EOSINOPHIL,[2],0 CELLS/uL
same,ABSOLUTE LYMPHOCYTE,[2],10938.33 CELLS/uL
same,ABSOLUTE MONOCYTE,[2],387.67 CELLS/uL
same,ABSOLUTE SEGMENTED NEUTROPHIL,[2],1740.67 CELLS/uL
same,BASOPHIL,[2],0%
same,EOSINOPHIL,[2],0%
same,ERYTHROCYTE COUNT,[2],5.48 x10E6/uL
same,HEMATOCRIT,[2],33.37%
same,HEMOGLOBIN,[2],13.03 G/DL
same,LEUKOCYTE COUNT,[2],13.07 x10E3/uL
same,LYMPHOCYTE,[2],83.67%
same,MEAN CORPUSCULAR HEMOGLOBIN,[2],23.83 pg
same,MEAN CORPUSCULAR HEMOGLOBIN CONCENTRATION,[2],39.1 G/DL
same,MEAN CORPUSCULAR VOLUME,[2],61.07 fL
same,MONOCYTE,[2],3%
same,NEUTROPHIL,[2],13.33%
same,NUCLEATED RED BLOOD CELLS,[2],0 /100WBC
same,PLATELET COUNT,[2],1209.67 x10E3/uL
same,ALANINE AMINOTRANSFERASE,[2],49.33 u/L
same,ALBUMIN,[2],4.03 G/DL
same,ALKALINE PHOSPHATASE,[2],405.67 u/L
same,ASPARTATE AMINOTRANSFERASE,[2],76 u/L
same,BLOOD UREA NITROGEN,[2],16.67 mg/dL
same,CARBON DIOXIDE,[2],29.33 mmol/L
same,CHLORIDE,[2],98.67 MEQ/L
same,CHOLESTEROL,[2],65.67 mg/dL
same,CREATINE PHOSPHOKINASE,[2],223 u/L
same,CREATININE,[2],0.21 mg/dL
same,GLUCOSE,[2],141.33 mg/dL
same,LACTATE DEHYDROGENASE,[2],112 u/L
same,LIPASE,[2],9.67 u/L
same,PHOSPHORUS,[2],13.63 mg/dL
same,POTASSIUM,[2],6.46 MEQ/L
same,SODIUM,[2],145.77 MEQ/L
same,TOTAL BILIRUBIN,[2],0.1 mg/dL
same,TOTAL PROTEIN,[2],5.97 G/DL
same,URIC ACID,[2],1.43 mg/dL
same,ABSOLUTE BASOPHIL,[3],0 CELLS/uL
same,ABSOLUTE EOSINOPHIL,[3],0 CELLS/uL
same,ABSOLUTE LYMPHOCYTE,[3],12119.33 CELLS/uL
same,ABSOLUTE MONOCYTE,[3],277.33 CELLS/uL
same,ABSOLUTE SEGMENTED NEUTROPHIL,[3],1536.67 CELLS/uL
same,BASOPHIL,[3],0%
same,EOSINOPHIL,[3],0%
same,ERYTHROCYTE COUNT,[3],5.33 x10E6/uL
same,HEMATOCRIT,[3],33.43%
same,HEMOGLOBIN,[3],12.9 G/DL
same,LEUKOCYTE COUNT,[3],13.93 x10E3/uL
same,LYMPHOCYTE,[3],87%
same,MEAN CORPUSCULAR HEMOGLOBIN,[3],24.23 pg
same,MEAN CORPUSCULAR HEMOGLOBIN CONCENTRATION,[3],38.6 G/DL
same,MEAN CORPUSCULAR VOLUME,[3],62.83 fL
same,MONOCYTE,[3],2%
same,NEUTROPHIL,[3],11%
same,NUCLEATED RED BLOOD CELLS,[3],0 /100WBC
same,PLATELET COUNT,[3],1170.67 x10E3/uL
same,ALANINE AMINOTRANSFERASE,[3],123 u/L
same,ALBUMIN,[3],4.1 G/DL
same,ALKALINE PHOSPHATASE,[3],384.67 u/L
same,ASPARTATE AMINOTRANSFERASE,[3],116 u/L
same,BLOOD UREA NITROGEN,[3],16 mg/dL
same,CARBON DIOXIDE,[3],24.67 mmol/L
same,CHLORIDE,[3],102 MEQ/L
same,CHOLESTEROL,[3],71.33 mg/dL
same,CREATINE PHOSPHOKINASE,[3],478.67 u/L
same,CREATININE,[3],0.2 mg/dL
same,GLUCOSE,[3],126.67 mg/dL
same,LACTATE DEHYDROGENASE,[3],279.67 u/L
same,LIPASE,[3],10.67 u/L
same,PHOSPHORUS,[3],11.9 mg/dL
same,POTASSIUM,[3],5.78 MEQ/L
same,SODIUM,[3],145.13 MEQ/L
same,TOTAL BILIRUBIN,[3],0.1 mg/dL
same,TOTAL PROTEIN,[3],5.8 G/DL
same,URIC ACID,[3],1.2 mg/dL
same,ABSOLUTE BASOPHIL,[4],0 CELLS/uL
same,ABSOLUTE EOSINOPHIL,[4],49.33 CELLS/uL
same,ABSOLUTE LYMPHOCYTE,[4],11875.33 CELLS/uL
same,ABSOLUTE MONOCYTE,[4],141.33 CELLS/uL
same,ABSOLUTE SEGMENTED NEUTROPHIL,[4],1867.33 CELLS/uL
same,BASOPHIL,[4],0%
same,EOSINOPHIL,[4],0.33%
same,ERYTHROCYTE COUNT,[4],6 x10E6/uL
same,HEMATOCRIT,[4],36.07%
same,HEMOGLOBIN,[4],13.93 G/DL
same,LEUKOCYTE COUNT,[4],13.93 x10E3/uL
same,LYMPHOCYTE,[4],85.33%
same,MEAN CORPUSCULAR HEMOGLOBIN,[4],23.27 pg
same,MEAN CORPUSCULAR HEMOGLOBIN CONCENTRATION,[4],38.67 G/DL
same,MEAN CORPUSCULAR VOLUME,[4],60.1 fL
same,MONOCYTE,[4],1%
same,NEUTROPHIL,[4],13.33%
same,NUCLEATED RED BLOOD CELLS,[4],0 /100WBC
same,PLATELET COUNT,[4],1140 x10E3/uL
same,ALANINE AMINOTRANSFERASE,[4],337 u/L
same,ALBUMIN,[4],3.63 G/DL
same,ALKALINE PHOSPHATASE,[4],249.33 u/L
same,ASPARTATE AMINOTRANSFERASE,[4],188 u/L
same,BLOOD UREA NITROGEN,[4],13.67 mg/dL
same,CARBON DIOXIDE,[4],25 mmol/L
same,CHLORIDE,[4],105 MEQ/L
same,CHOLESTEROL,[4],25 mg/dL
same,CREATINE PHOSPHOKINASE,[4],1012.33 u/L
same,CREATININE,[4],0.12 mg/dL
same,GLUCOSE,[4],128.67 mg/dL
same,LACTATE DEHYDROGENASE,[4],213 u/L
same,LIPASE,[4],8.67 u/L
same,PHOSPHORUS,[4],10.37 mg/dL
same,POTASSIUM,[4],5.67 MEQ/L
same,SODIUM,[4],144.2 MEQ/L
same,TOTAL BILIRUBIN,[4],0.1 mg/dL
same,TOTAL PROTEIN,[4],5.1 G/DL
same,URIC ACID,[4],1.23 mg/dL
